Laboratory results published in patent US8822468B2 (Novartis AG, priority 2008, dated 2014).

Target: T1, cMET receptor tyrosine kinase (GST-cMET (969-1390)) (Homo sapiens, UniProt P08581)
T1 construct: made in house
Assay: EPK cMET profiling assay (LanthaScreen TR-FRET antibody based kinase phosphorylation assay)
Format: biochemical
Conditions: purified recombinant GST-cMET (969-1390), 2 μM ATP, 50 nM Fluorescein-PolyEAY, 60 minutes at room temperature; read-out: c-Met IC50
In short: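 GST-cMET cytoplasmic domain (969-1390), 0.3 nM, phosphorylated 50 nM fluorescein-PolyEAY with 2 µM ATP, Mg2+/Mn2+, 0.6% DMSO, 60 min at room temperature. Stopped with EDTA; Tb-PY20 antibody TR-FRET single end-point read. Final compound concentrations 10 to 0.003 µM, 8 points.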

T1 sequence (P08581 969-1390): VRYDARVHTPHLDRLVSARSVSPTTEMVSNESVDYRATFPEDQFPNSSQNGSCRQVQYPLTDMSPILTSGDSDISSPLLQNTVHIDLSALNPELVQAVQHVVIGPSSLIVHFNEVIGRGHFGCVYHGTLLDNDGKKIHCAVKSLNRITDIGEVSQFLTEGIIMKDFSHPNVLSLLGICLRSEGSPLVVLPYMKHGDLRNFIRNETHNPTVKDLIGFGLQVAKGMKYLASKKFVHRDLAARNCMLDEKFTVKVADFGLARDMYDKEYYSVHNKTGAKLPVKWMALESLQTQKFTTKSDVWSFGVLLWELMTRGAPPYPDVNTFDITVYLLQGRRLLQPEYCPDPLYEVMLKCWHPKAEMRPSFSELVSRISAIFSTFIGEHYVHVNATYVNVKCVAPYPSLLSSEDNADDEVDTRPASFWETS

Cn1cc(-c2ccc3ncc(Cc4ccc5ncc(-c6cnn(C)c6)n5c4)n3n2)cn1 [Example 307, 6-(1-Methyl-1H-pyrazol-4-yl)-3-[3-(1-methyl-1H-pyrazol-4-yl)-imidazo[1,2-a]pyridin-6-ylmethyl]-imidazo[1,2-b]pyridazine]
IC50: 320 nM
